Assay results taken from patent publication US9394261B2, “Aryl amine substituted pyrimidine and quinazoline and their use as anticancer drugs” (National Yang-Ming University, priority 2012, dated 2016).

Columns and labels:
[1] = tested on: SK-Hep-1 cell lines (a hepatocellular carcinoma (HCC) cell); assay: MTT assay, growth inhibition of SK-Hep-1 cells; assay type: cell-based; settings: for IC50: SK-Hep-1 cells, 48 hours; for growth-inhibitory activity (MTT), in words: SK-Hep-1 (HCC) cells
Protocol: MTT assay was used to measure growth inhibition. […] MTT (3-(4,5-dimethylthiazol-2-yl)-2,5-diphenyl tetrazolium bromide) assay was performed as follow.
(§1) The effect of individual test compounds on cell viability was assessed by using the MTT in 6 replicates. Sk-Hep-1 cells were seeded and incubated in 96-well, flat-bottomed plates for 24 hours, and were exposed to various concentrations of test compounds dissolved in DMSO (final concentration, 0.1%) for 48 hours. Controls received DMSO vehicle at a concentration equal to that in drug-treated cells. The medium was removed, replaced by 200 μL of 0.5 mg/mL MTT in 10% fetal bovine serum containing DMEM (Dulbecco's Modified Eagle Medium), and cells were incubated in the carbon dioxide incubator at 37° C. for 2 hours. Supernatants were removed from the wells and the reduced MTT dye was solubilized in 100 μL/well DMSO. Absorbance at 570 nm was determined on a plate reader.
The SK-Hep1 cells were then analyzed with western blot assay and MTT assay.

[2] = tested on: PLC5 cell lines; assay: MTT assay, growth inhibition of PLC5 cells; assay type: cell-based; settings: PLC5, PLC5 cells
Protocol: as §1
Next, compounds 19, and 34-36 were screened against a panel of Hep3B cell lines for growth-inhibitory activities. […] Compounds 87-90, 95 and 96 were screened against a panel of PLC5 cell lines for growth-inhibitory activities.

| Compound | IC50 ([1]; Homo sapiens, SK-HEP1, 48 h) [µM] | further results |
| --- | --- | --- |
| C#Cc1cccc(Nc2ccnc(Cl)n2)c1 [Compound 1, 2-Chloro-N-(3-ethynylphenyl)pyrimidin-4-amine] | > 40 | – |
| C#Cc1cccc(Nc2nc(NCc3ccc(Cl)c(C(F)(F)F)c3)nc3cc(OC)c(OC)cc23)c1 [Compound 27, N^2-(4-Chloro-3-(trifluoromethyl)benzyl)-N^4-(3-ethynylphenyl)-6,7-dimethoxyquinazoline-2,4-diamine] | – | IC50 [1]: 2.6 µM |
| C#Cc1cccc(Nc2nc(Nc3cccc(Oc4ccc(C#N)cc4)c3)nc3cc(OC)c(OC)cc23)c1 [Compound 23, 4-(3-(4-(3-Ethynylphenylamino)-6,7-dimethoxyquinazolin-2-ylamino)phenoxy)benzonitrile] | – | IC50 [1]: 3.9 µM |
| FC(F)(F)c1cc(Nc2ccnc(Nc3ccc(Cl)c(C(F)(F)F)c3)n2)ccc1Cl [Compound 7, N^2,N^4-Bis(4-chloro-3-(trifluoromethyl)phenyl)pyrimidine-2,4-diamine] | 10 to 20 | growth-inhibitory activity (MTT), in words [1]: more potent anti-tumor activity than the mono-substituted pyrimidine derivatives |
| C#Cc1cccc(Nc2nc(Nc3cccc(NC(=O)c4ccccc4)c3)nc3cc(OC)c(OC)cc23)c1 [Compound 33, N-(3-(4-(3-ethynylphenylamino)-6,7-dimethoxyquinazolin-2-ylamino)phenyl)benzamide] | – | IC50 [1]: 2.65 µM |
| Clc1cccc(Nc2ccnc(Cl)n2)c1 [Compound 2, 2-Chloro-N-(3-chlorophenyl)pyrimidin-4-amine] | > 40 | – |
| COc1cc2nc(Cl)nc(Nc3cccc(Oc4ccc(C#N)cc4)c3)c2cc1OC [Compound 16, 4-(3-(2-Chloro-6,7-dimethoxyquinazoline-4-ylamino)phenoxy)benzonitrile] | > 40 | – |
| C#Cc1cccc(Nc2nc(Nc3ccc(Oc4ccc(Cl)c(Cl)c4)cc3)nc3cc(OC)c(OC)cc23)c1 [Compound 90, N^2-(4-(3,4-dichlorophenoxyl)phenyl)-N^4-(3-ethynylphenyl)-6,7-dimethoxyquinazoline-2,4-diamine] | – | IC50 [2]: 0.77 µM |
| C#Cc1cccc(Nc2nc(Nc3ccc(Oc4ccc(C#N)cc4)cc3)nc3cc(OC)c(OC)cc23)c1 [Compound 24, 4-(4-(4-(3-Ethynylphenylamino)-6,7-dimethoxyquinazolin-2-ylamino)phenoxy)benzonitrile] | 10 to 20 | IC50 [1]: 14.5 µM |
| C#Cc1cccc(Nc2nc(NCc3ccc(OC)c(OC)c3)nc3cc(OC)c(OC)cc23)c1 [Compound 29, N^2-(3,4-dimethoxybenzyl)-N^4-(3-ethynylphenyl)-6,7-dimethoxyquinazoline-2,4-diamine] | < 10 | – |
| C#Cc1cccc(Nc2ccnc(Nc3cccc(C#C)c3)n2)c1 [Compound 6, N^2,N^4-Bis(3-ethynylphenyl)pyrimidine-2,4-diamine] | < 10 | growth-inhibitory activity (MTT), in words [1]: more potent anti-tumor activity than the mono-substituted pyrimidine derivatives |
| C#Cc1cccc(Nc2nc(Nc3cccc(C#C)c3)c3cc(OC)c(OC)cc3n2)c1 [Compound 25, N^2,N^4-Bis(3-ethynylphenyl)-6,7-dimethoxyquinazoline-2,4-diamine] | < 10 | – |
| FC(F)(F)c1cc(Nc2ccnc(Cl)n2)ccc1Cl [Compound 3, 2-Chloro-N-(4-chloro-3-(trifluoromethyl)phenyl)pyrimidin-4-amine] | > 40 | – |
| Clc1nccc(NCc2ccccc2)n1 [Compound 5, N-Benzyl-2-chloropyrimidin-4-amine] | > 40 | – |
| C#Cc1cccc(Nc2nc(Nc3ccc(Cl)c(Oc4ccc(C#N)cc4)c3)nc3cc(OC)c(OC)cc23)c1 [Compound 87, 4-(2-chloro-5-((4-((3-ethynylphenyl)amino)-6,7-dimethoxyquinazolin-2-yl)amino)phenoxy)benzonitrile] | – | IC50 [2]: 8.2 µM |
| C#Cc1cccc(Nc2nc(NCc3cccc(OC(F)(F)F)c3)nc3cc(OC)c(OC)cc23)c1 [Compound 28, N^4-(3-Ethynylphenyl)-6,7-dimethoxy-N^2-(3-(trifluoromethoxy)benzyl)quinazoline-2,4-diamine] | – | IC50 [1]: 2.55 µM |
| COc1cc2nc(Cl)nc(Nc3ccc(O)cc3C)c2cc1OC [Compound 15, 4-(2-Chloro-6,7-dimethoxyquinazoline-4-ylamino)-3-methylphenol] | > 40 | – |
| COc1cc2nc(Cl)nc(Nc3cc(C)ccc3F)c2cc1OC [Compound 12, 2-Chloro-N-(2-fluoro-5-methylphenyl)-6,7-dimethoxy quinazoline-4-amine] | > 40 | – |
| C#Cc1cccc(Nc2nc(Nc3ccc(Cl)c(C(F)(F)F)c3)nc3cc(OC)c(OC)cc23)c1 [Compound 18, N^2-(4-Chloro-3-(trifluoromethyl)phenyl)-N^4-(3-ethynylphenyl)-6,7-dimethoxy-quinazoline-2,4-diamine] | < 10 | – |
| C#Cc1cccc(Nc2nc(Nc3cccc(NS(=O)(=O)c4ccc(C(F)(F)F)cc4Br)c3)nc3cc(OC)c(OC)cc23)c1 [Compound 32, 2-Bromo-N-(3-(4-(3-ethynylphenylamino)-6,7-dimethoxyquinazolin-2-ylamino)phenyl)-4-(trifluoromethyl)benzenesulfonamide] | < 10 | – |
| COc1cc2nc(Cl)nc(NCc3ccccc3)c2cc1OC [Compound 17, N-Benzyl-2-chloro-6,7-dimethoxyquinazoline-4-amine] | 10 to 20 | – |
| COc1cc2nc(Cl)nc(Nc3cccc(O)c3)c2cc1OC [Compound 11, 3-(2-Chloro-6,7-dimethoxyquinazoline-4-ylamino)phenol] | > 40 | – |
| C#Cc1cccc(Nc2nc(Nc3cccc(Cl)c3)nc3cc(OC)c(OC)cc23)c1 [Compound 20, N^2-(3-Chlorophenyl)-N^4-(3-ethynylphenyl)-6,7-dimethoxy quinazoline-2,4-diamine] | < 10 | – |
| C#Cc1cccc(Nc2nc(Nc3cccc(NS(=O)(=O)c4cccc(C(F)(F)F)c4)c3)nc3cc(OC)c(OC)cc23)c1 [Compound 31, N-(3-(4-(3-Ethynylphenylamino)-6,7-dimethoxyquinazolin-2-ylamino)phenyl)-3-(trifluoromethyl)benzenesulfonamide] | – | IC50 [1]: 1.95 µM |
| C#Cc1cccc(Nc2nc(Nc3cccc(NS(=O)(=O)c4ccccc4)c3)nc3cc(OC)c(OC)cc23)c1 [Compound 30, N-(3-(4-(3-ethynylphenylamino)-6,7-dimethoxyquinazolin-2-ylamino)phenyl)benzenesulfonamide] | < 10 | – |
| C#Cc1cccc(N(C)c2nc(Cl)nc3cc(OC)c(OC)cc23)c1 [Compound 9, 2-Chloro-N-(3-ethynylphenyl)-6,7-dimethoxy-N-methyl quinazoline-4-amine] | 10 to 20 | IC50 [1]: 12.3 ± 0.6 µM |
| C#Cc1cccc(Nc2nc(Nc3cccc(CC)c3)nc3cc(OC)c(OC)cc23)c1 [Compound 26, N^2-(3-ethylphenyl)-N^4-(3-ethynylphenyl)-6,7-dimethoxy quinazoline-2,4-diamine] | < 10 | – |
| COc1cc2nc(Cl)nc(Nc3cccc(Cl)c3)c2cc1OC [Compound 10, 2-Chloro-N-(3-chlorophenyl)-6,7-dimethoxyquinazoline-4-amine] | 10 to 20 | – |
| COc1cc2nc(Cl)nc(Nc3ccc(Oc4ccccc4)cc3)c2cc1OC [Compound 14, 2-Chloro-6,7-dimethoxy-N-(4-phenoxyphenyl)quinazoline-4-amine] | 10 to 20 | IC50 [1]: 15.3 ± 0.6 µM |
